# According to article PMC12849875, “CYP4X1/sEH‐Dependent Endocannabinoid Metabolism Drives Fibroblast‐Mediated Immunosuppression to Limit Immunotherapy in Colon Cancer” (Advanced Science, 2025):
# pEC50: −log10 of the molar value.
# How the values were obtained:
# GPR119 [1] = biological target: T1, GPR119 (Homo sapiens, UniProt Q8TDV5); experiment: cAMP accumulation in heterologous expression system, positive control agonist; assay type: cell-based
# T1 sequence (Q8TDV5 1-335): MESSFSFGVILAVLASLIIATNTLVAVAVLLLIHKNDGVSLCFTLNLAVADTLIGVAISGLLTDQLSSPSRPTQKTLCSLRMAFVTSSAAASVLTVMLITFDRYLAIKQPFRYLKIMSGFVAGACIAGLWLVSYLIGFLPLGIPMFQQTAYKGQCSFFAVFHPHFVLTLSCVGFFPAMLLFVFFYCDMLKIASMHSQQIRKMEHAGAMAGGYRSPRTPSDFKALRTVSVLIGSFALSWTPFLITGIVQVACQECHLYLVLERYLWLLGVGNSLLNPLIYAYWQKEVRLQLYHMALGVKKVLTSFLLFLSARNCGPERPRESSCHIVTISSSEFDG
# GPR119 [2] = biological target: T1, GPR119; experiment: cAMP accumulation in heterologous expression system; PathHunter β-arrestin […] recruitment (EC50 =[…]); assay type: cell-based
Compound,"cAMP accumulation in heterologous expression system, positive control agonist (GPR119 [1])",pEC50 (GPR119 [2])
CCCCCCCC/C=C\CCCCCCCC(=O)NCCO [OEA],"OEA, the most potent endogenous agonist of GPR119, was used as the positive control.",
"CCCCCC1OC1C/C=C\C/C=C\C/C=C\CCCC(=O)NCCO (centres unmarked) [14,15-EET-EA]",,5.43
